Columns and labels:
Format in all cases: biochemical
[1] = target: PKC γ (Homo sapiens, UniProt P05129); test: Protein Kinase C Histone-Based Assay, γ isoform; conditions: histone III substrate, 30 μM ATP, 10 min at 30° C.; read-out: PKC Activity (IC50 μM, Histone Based Assay) Gamma
Protocol: (§1) Compounds were evaluated for PKC selectivity using histone III as the substrate. […] The reaction was incubated for 10 min at 30° C. Reactions were terminated by TCA precipitation and spotting on Whatman P81 filters. Filters were washed in 75 mM phosphoric acid and the radioactivity quantified by liquid scintillation counting.

[2] = target: PKC α (Homo sapiens, UniProt P17252); test: Protein Kinase C Histone-Based Assay, α isoform; conditions: histone III substrate, 30 μM ATP, 10 min at 30° C.; read-out: PKC Activity (IC50 μM, Histone Based Assay) Alpha
Protocol: as §1

[3] = target: PKC β-II (Homo sapiens, UniProt P05771); test: Protein Kinase C Histone-Based Assay, β-II isoform; conditions: histone III substrate, 30 μM ATP, 10 min at 30° C.; read-out: PKC Activity (IC50 μM, Histone Based Assay) Beta II
Sequence of PKC β-II (P05771 1-673 isoform P05771-2): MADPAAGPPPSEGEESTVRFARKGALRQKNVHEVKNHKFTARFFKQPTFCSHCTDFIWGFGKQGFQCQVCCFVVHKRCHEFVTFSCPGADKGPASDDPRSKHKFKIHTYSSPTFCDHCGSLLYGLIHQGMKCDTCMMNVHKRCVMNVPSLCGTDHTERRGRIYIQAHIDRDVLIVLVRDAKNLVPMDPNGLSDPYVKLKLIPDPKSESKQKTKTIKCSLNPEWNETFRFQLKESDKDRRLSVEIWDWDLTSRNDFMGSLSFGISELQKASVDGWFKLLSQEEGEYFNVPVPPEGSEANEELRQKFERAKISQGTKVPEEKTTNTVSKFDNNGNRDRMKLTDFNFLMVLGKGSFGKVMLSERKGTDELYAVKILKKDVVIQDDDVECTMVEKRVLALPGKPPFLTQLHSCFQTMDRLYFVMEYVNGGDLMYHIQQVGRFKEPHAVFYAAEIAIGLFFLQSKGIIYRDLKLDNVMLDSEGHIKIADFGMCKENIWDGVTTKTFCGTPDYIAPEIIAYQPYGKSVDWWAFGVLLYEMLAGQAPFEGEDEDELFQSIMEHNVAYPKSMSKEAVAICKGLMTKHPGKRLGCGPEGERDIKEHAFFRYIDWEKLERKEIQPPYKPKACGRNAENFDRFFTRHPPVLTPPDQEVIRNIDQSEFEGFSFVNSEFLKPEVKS
Protocol: as §1

NCCCn1nc(C2=C(c3cn(-c4cccnc4)c4ccccc34)C(=O)NC2=O)c2ccccc21 [Compound 109, 3-[1-(3-aminopropyl)-1H-indazol-3-yl]-4-[1-(3-pyridinyl)-1H-indol-3-yl]-1H-pyrrole-2,5-dione]
IC50 [1]: 0.231 µM
IC50 [2]: 0.032 µM
IC50 [3]: 0.005 µM

CN(C)CCCn1nc(C2=C(c3cn(-c4cncnc4)c4ccccc34)C(=O)NC2=O)c2ccccc21 [Compound 34, 3-[1-[3-(dimethylamino)propyl]-1H-indazol-3-yl]-4-[1-(5-pyrimidinyl)-1H-indol-3-yl]-1H-pyrrole-2,5-dione]
IC50 [1]: 0.665 µM
IC50 [2]: 0.205 µM
IC50 [3]: 0.009 µM

CN(C)CCn1nc(C2=C(c3cn(-c4csc5ccccc45)c4ccccc34)C(=O)NC2=O)c2ccccc21 [Compound 103, 3-(1-benzo[b]thien-3-yl-1H-indol-3-yl)-4-[1-[2-(dimethylamino)ethyl]-1H-indazol-3-yl]-1H-pyrrole-2,5-dione]
IC50 [1]: 0.161 µM
IC50 [2]: 0.189 µM
IC50 [3]: 0.02 µM

CN(C)CCCn1nc(C2=C(c3cn(-c4cccs4)c4ccccc34)C(=O)NC2=O)c2ccccc21 [Compound 9, 3-[1-[3-(dimethylamino)propyl]-1H-indazol-3-yl]-4-[1-(2-thienyl)-1H-indol-3-yl]-1H-pyrrole-2,5-dione]
IC50 [1]: 0.262 µM
IC50 [2]: 0.141 µM
IC50 [3]: 0.008 µM

O=C1NC(=O)C(c2nn(CCCN3CCOCC3)c3ccccc23)=C1c1cn(-c2ccc3ccccc3c2)c2ccccc12 [Compound 70, 3-[1-[3-(4-morpholinyl)propyl]-1H-indazol-3-yl]-4-[1-(2-naphthalenyl)-1H-indol-3-yl]-1H-pyrrole-2,5-dione]
IC50 [1]: 0.342 µM
IC50 [2]: 0.259 µM
IC50 [3]: 0.018 µM

CN(C)CCn1nc(C2=C(c3cn(-c4ccc5ccccc5c4)c4ccccc34)C(=O)NC2=O)c2ccccc21 [Compound 101, 3-[1-[2-(dimethylamino)ethyl]-1H-indazol-3-yl]-4-[1-(2-naphthalenyl)-1H-indol-3-yl]-1H-pyrrole-2,5-dione]
IC50 [1]: 0.134 µM
IC50 [2]: 0.08 µM
IC50 [3]: 0.019 µM

O=C1NC(=O)C(c2nn(CCCN3CCOCC3)c3ccccc23)=C1c1cn(-c2cnc3ccccc3c2)c2ccccc12 [Compound 22, 3-[1-[3-(4-morpholinyl)propyl]-1H-indazol-3-yl]-4-[1-(3-quinolinyl)-1H-indol-3-yl]-1H-pyrrole-2,5-dione]
IC50 [1]: 0.09 µM
IC50 [2]: 0.043 µM
IC50 [3]: 0.006 µM

CN(C)CCCn1nc(C2=C(c3cn(-c4cccnc4)c4ccccc34)C(=O)NC2)c2ccccc21 [Compound 125, 4-[1-[3-(dimethylamino)propyl]-1H-indazol-3-yl]-1,5-dihydro-3-[1-(3-pyridinyl)-1H-indol-3-yl]-2H-pyrrol-2-one]
IC50 [2]: 0.339 µM
IC50 [3]: 0.005 µM

CN(C)CCn1nc2ccccc2c1C1=C(c2cn(-c3csc4ccccc34)c3ccccc23)C(=O)NC1=O [Compound 123, 3-(1-benzo[b]thien-3-yl-1H-indol-3-yl)-4-[2-[2-(dimethylamino)ethyl]-2H-indazol-3-yl]-1H-pyrrole-2,5-dione]
IC50 [3]: 0.026 µM

O=C1NC(=O)C(c2nn(CCCN3CCCC3)c3ccccc23)=C1c1cn(-c2ccc3ccccc3c2)c2ccccc12 [Compound 85, 3-[1-(2-naphthalenyl)-1H-indol-3-yl]-4-[1-[3-(1-pyrrolidinyl)propyl]-1H-indazol-3-yl]-1H-pyrrole-2,5-dione]
IC50 [1]: 0.511 µM
IC50 [2]: 0.477 µM
IC50 [3]: 0.044 µM

O=C1NC(=O)C(c2nn(CCC3OCCO3)c3ccccc23)=C1c1cn(-c2cnc3ccccc3c2)c2ccccc12 [Compound 24, 3-[1-[2-(1,3-dioxolan-2-yl)ethyl]-1H-indazol-3-yl]-4-[1-(3-quinolinyl)-1H-indol-3-yl]-1H-pyrrole-2,5-dione]
IC50 [1]: 1.29 µM
IC50 [2]: 0.2 µM
IC50 [3]: 0.029 µM

CN(C)CCCn1nc(C2=C(c3cn(-c4cncc5ccccc45)c4ccccc34)C(=O)NC2=O)c2ccccc21 [Compound 16, 3-[1-[3-(dimethylamino)propyl]-1H-indazol-3-yl]-4-[1-(4-isoquinolinyl)-1H-indol-3-yl]-1H-pyrrole-2,5-dione]
IC50 [1]: 0.253 µM
IC50 [2]: 0.29 µM
IC50 [3]: 0.015 µM

O=CCCn1nc(C2=C(c3cn(-c4cnc5ccccc5c4)c4ccccc34)C(=O)NC2=O)c2ccccc21 [Compound 23, 3-[2,5-dihydro-2,5-dioxo-4-[1-(3-quinolinyl)-1H-indol-3-yl]-1H-pyrrol-3-yl]-1H-indazole-1-propionaldehyde]
IC50 [1]: 0.188 µM
IC50 [2]: 0.546 µM
IC50 [3]: 0.054 µM

CN(C)CCCn1nc(C2=C(c3cn(-c4cccnc4)c4ccc(Cl)cc34)C(=O)NC2=O)c2ccccc21 [Compound 13, 3-[5-chloro-1-(3-pyridinyl)-1H-indol-3-yl]-4-[1-[3-(dimethylamino)propyl]-1H-indazol-3-yl]-1H-pyrrole-2,5-dione]
IC50 [1]: 0.045 µM
IC50 [2]: 0.011 µM
IC50 [3]: 0.004 µM

CN(C)CCCn1nc(C2=C(c3cn(-c4csc5ccccc45)c4ccccc34)C(=O)NC2=O)c2ccccc21 [Compound 60, 3-(1-benzo[b]thien-3-yl-1H-indol-3-yl)-4-[1-[3-(dimethylamino)propyl]-1H-indazol-3-yl]-1H-pyrrole-2,5-dione]
IC50 [1]: 0.713 µM
IC50 [2]: 0.611 µM
IC50 [3]: 0.037 µM

CN(CCO)CCCn1nc(C2=C(c3cn(-c4ccc5ccccc5c4)c4ccccc34)C(=O)NC2=O)c2ccccc21 [Compound 88, 3-[1-[3-[(2-hydroxyethyl)methylamino]propyl]-1H-indazol-3-yl]-4-[1-(2-naphthalenyl)-1H-indol-3-yl]-1H-pyrrole-2,5-dione]
IC50 [1]: 0.232 µM
IC50 [2]: 0.422 µM
IC50 [3]: 0.038 µM

CN(C)CCCn1nc(C2=C(c3cn(Cc4ccc5ccccc5n4)c4ccccc34)C(=O)NC2=O)c2ccccc21 [Compound 67, 3-[1-[3-(dimethylamino)propyl]-1H-indazol-3-yl]-4-[1-(2-quinolinylmethyl)-1H-indol-3-yl]-1H-pyrrole-2,5-dione]
IC50 [1]: 0.65 µM
IC50 [2]: 1.48 µM
IC50 [3]: 0.016 µM

O=C1NC(=O)C(c2nn(CCCO)c3ccccc23)=C1c1cn(-c2ccc3ccccc3c2)c2ccccc12 [Compound 84, 3-[1-(3-hydroxypropyl)-1H-indazol-3-yl]-4-[1-(2-naphthalenyl)-1H-indol-3-yl]-1H-pyrrole-2,5-dione]
IC50 [1]: 0.206 µM
IC50 [2]: 0.358 µM
IC50 [3]: 0.057 µM

CN(C)CCCn1nc(C2=C(c3cn(-c4cccnc4)c4ccccc34)C(=O)NC2=O)c2ccccc21 [Compound 12, 3-[1-[3-(dimethylamino)propyl]-1H-indazol-3-yl]-4-[1-(3-pyridinyl)-1H-indol-3-yl]-H-pyrrole-2,5-dione]
IC50 [1]: 0.213 µM
IC50 [2]: 0.124 µM
IC50 [3]: 0.007 µM

CN(C)CCCn1nc(C2=C(c3cn(-c4ccccc4)c4ccccc34)C(=O)NC2=O)c2ccccc21 [Compound 45, 3-[1-[3-(dimethylamino)propyl]-1H-indazol-3-yl]-4-(1-phenyl-1H-indol-3-yl)-1H-pyrrole-2,5-dione]
IC50 [1]: 0.168 µM
IC50 [2]: 0.071 µM
IC50 [3]: 0.01 µM

CN(C)CCCn1nc(C2=C(c3cn(-c4cccc5ccccc45)c4ccccc34)C(=O)NC2=O)c2ccccc21 [Compound 15, 3-[1-[3-(dimethylamino)propyl]-1H-indazol-3-yl]-4-[1-(1-naphthalenyl)-1H-indol-3-yl]-1H-pyrrole-2,5-dione]
IC50 [1]: 3.35 µM
IC50 [2]: 1.23 µM
IC50 [3]: 0.029 µM

CN(C)CCCn1nc(C2=C(c3cn(-c4ccc5ccccc5c4)c4ccccc34)C(=O)NC2=O)c2ccccc21 [Compound 14, 3-[1-[3-(dimethylamino)propyl]-1H-indazol-3-yl]-4-[1-(2-naphthalenyl)-1H-indol-3-yl]-1H-pyrrole-2,5-dione]
IC50 [1]: 0.115 µM
IC50 [2]: 0.057 µM
IC50 [3]: 0.005 µM

CN(C)CCCn1nc(C2=C(c3cn(-c4ccc5cc(O)ccc5c4)c4ccccc34)C(=O)NC2=O)c2ccccc21 [Compound 64, 3-[1-[3-(dimethylamino)propyl]-1H-indazol-3-yl]-4-[1-(6-hydroxy-2-naphthalenyl)-1H-indol-3-yl]-1H-pyrrole-2,5-dione]
IC50 [1]: 0.215 µM
IC50 [2]: 0.101 µM
IC50 [3]: 0.013 µM

CN(C)CCCn1nc(C2=C(c3cn(-c4cnc5ccccc5c4)c4ccccc34)C(=O)NC2=O)c2ccccc21 [Compound 19, 3-[1-[3-(dimethylamino)propyl]-1H-indazol-3-yl]-4-[1-(3-quinolinyl)-1H-indol-3-yl]-1H-pyrrole-2,5-dione]
IC50 [1]: 0.047 µM
IC50 [2]: 0.011 µM
IC50 [3]: 0.004 µM

CN(C)CCCn1nc(C2=C(c3cn(-c4ccccn4)c4ccccc34)C(=O)NC2=O)c2ccccc21 [Compound 31, 3-[1-[3-(dimethylamino)propyl]-1H-indazol-3-yl]-4-[1-(2-pyridinyl)-1H-indol-3-yl]-1H-pyrrole-2,5-dione]
IC50 [1]: 0.091 µM
IC50 [2]: 0.106 µM
IC50 [3]: 0.015 µM

Reference: patent US7329657B2, “Indazolyl-substituted pyrroline compounds as kinase inhibitors” (Ortho-McNeil Pharmaceutical, Inc., priority 2000, dated 2008)
